Measured values taken from patent US11578056B2, “Solid forms comprising (S)-2-(2,6-dioxopiperidin-3-yl)-4-((2-fluoro-4-((3-morpholinoazetidin-1-yl)methyl)benzyl)amino)isoindoline-1,3-dione and salts thereof, and compositions comprising and methods of using the same” (Celgene Corporation, priority 2019, dated 2023).

Tests used:
Assay in all cases: Hematological cell line viability/apoptosis flow cytometry assay
Format in all cases: cell-based
OCI-LY18 cell line = conditions: OCI-LY18 (DLBCL); 120 h
Summary of the method: (§1)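 Cells were treated with compound at 0.00015 to 10 μM (0.1% DMSO) for 120 hours, then stained with Annexin V and DRAQ7 for flow cytometry. Live (double-negative) counts were normalized to DMSO to fit IC50, Emax and AUC; total early plus late apoptosis gave EC50, Ymax and AUC.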

RC-K8 cell line = conditions: RC-K8 (DLBCL ABC); 120 h
Summary of the method: as §1

WILL-2 cell line = conditions: WILL-2 (DLBCL), 120 h
Summary of the method: as §1

Daudi cell line = conditions: Daudi (BL), 120 h
Summary of the method: as §1

U-2904 cell line = conditions: U-2904 (DLBCL), 120 h
Summary of the method: as §1

I83-E95 cell line = conditions: I83-E95 (CLL), 120 h
Summary of the method: as §1

L-591 cell line = conditions: L-591 (HL), 120 h
Summary of the method: as §1

U-2946 cell line = conditions: U-2946 (DLBCL), 120 h
Summary of the method: as §1

CII cell line = conditions: CII (CLL), 120 h
Summary of the method: as §1

## O=C1CC[C@H](N2C(=O)c3cccc(NCc4ccc(CN5CC(N6CCOCC6)C5)cc4F)c3C2=O)C(=O)N1 [Compound 1, (S)-2-(2,6-dioxopiperidin-3-yl)-4-((2-fluoro-4-((3-morpholinoazetidin-1-yl)methyl)benzyl)amino)isoindoline-1,3-dione]
OCI-LY18 cell line
  % Viable Cells AUC: 1.965
  % Viable Cells Emax: 0.05973%
  Apoptosis AUC: 965.2
  Apoptosis Ymax: 97.44%
RC-K8 cell line
  % Viable Cells AUC: 115.7
  % Viable Cells Emax: 10.06%
  Apoptosis AUC: 349.2
  Apoptosis Ymax: 26.31%
WILL-2 cell line
  % Viable Cells AUC: 17.1
  % Viable Cells Emax: 0.03115%
  Apoptosis AUC: 916.9
  Apoptosis Ymax: 99.43%
  EC50: 89.7 nM
WILL-2 cell line; read-out: % Viable Cells IC50
  IC50: 2.36 nM
Daudi cell line
  % Viable Cells AUC: 196.4
  % Viable Cells Emax: 0%
  Apoptosis AUC: 274
  Apoptosis Ymax: 84.0%
Daudi cell line; Homo sapiens
  EC50: 2320 nM
Daudi cell line; Homo sapiens, read-out: % Viable Cells IC50
  IC50: 0.6 nM
U-2904 cell line
  % Viable Cells AUC: 334.1
  % Viable Cells Emax: 7.609%
  Apoptosis AUC: 456.1
  Apoptosis Ymax: 77.39%
  EC50: 3290 nM
U-2904 cell line; read-out: % Viable Cells IC50
  IC50: 201 nM
I83-E95 cell line
  % Viable Cells AUC: 259.2
  % Viable Cells Emax: 21.6%
  Apoptosis AUC: 358.4
  Apoptosis Ymax: 40.69%
  EC50: 61.1 nM
I83-E95 cell line; read-out: % Viable Cells IC50
  IC50: 17.3 nM
L-591 cell line
  % Viable Cells AUC: 334.2
  % Viable Cells Emax: 34.6%
  Apoptosis AUC: 45.59
  Apoptosis Ymax: 20.0%
  EC50: 1520 nM
L-591 cell line; read-out: % Viable Cells IC50
  IC50: 0.3 nM
U-2946 cell line
  % Viable Cells AUC: 45.47
  % Viable Cells Emax: 0.4821%
  Apoptosis AUC: 762.6
  Apoptosis Ymax: 93.34%
  EC50: 192 nM
U-2946 cell line; read-out: % Viable Cells IC50
  IC50: 4.6 nM
CII cell line
  % Viable Cells AUC: 926.1
  % Viable Cells Emax: 78.23%
  Apoptosis AUC: 238.1
  Apoptosis Ymax: 26.11%
  EC50: 145 nM
CII cell line; read-out: % Viable Cells IC50
  IC50: > 10000 nM
